According to patent US4340725A (priority 1979, dated 1982):
In brackets after ≈: the same amount, converted by molar mass.

Tests used:
[1] = tested on: Ehrlich ascites carcinoma; experiment: Effect on Ehrlich ascites carcinoma; format: in vivo, ddY-strain mice; conditions: for LTS: ≥60 days
Method: Five male ddY-strain mice having a weight of about 20 g are used for each group as test animals; and 5×10^6 cells of Ehrlich ascites carcinoma are implanted in the animals intraperitoneally. After 24 hours following implantation or once a day for five days from 24 hours after implantation, 0.2 ml PBS suspension containing DC-38-V in various concentrations is administered intraperitoneally.
For comparison, mitomycin C is used as test compound.

acute toxicity = conditions: mouse, in vivo, ip; mice, intraperitoneally
Method: The acute toxicity (LD50) of DC-38-V is >1000 mg/kg when the test compound is administered intraperitoneally to mice.

[2] = Stability (solid; acidic, neutral, alkaline liquid; sun light or shielding); format: physicochemical
Excerpt: The stability of compound is illustrated in Table 1.

[3] = tested on: Bacillus subtilis No. 10707; experiment: in vitro antibacterial spectra, agar dilution method (pH 7.0); format: cell-based; conditions: read-out: Minimum Inhibitory Concentration (MIC)
Excerpt: (§1) The in vitro antibacterial spectra of DC-38-V determined by the agar dilution method (pH 7.0) is illustrated in the following Table 7.

[4] = tested on: Shigella sonnei ATCC 9290; experiment: as above; format: cell-based; conditions: ATCC9290, read-out: Minimum Inhibitory Concentration (MIC)
Excerpt: as §1

[5] = tested on: Salmonella typhosa ATCC 9992; experiment: as above; format: cell-based; conditions: Salmonella enterica, read-out: Minimum Inhibitory Concentration (MIC)
Excerpt: as §1

[6] = tested on: Staphylococcus aureus ATCC 6538 P; experiment: as above; format: cell-based; conditions: ATCC6538, read-out: Minimum Inhibitory Concentration (MIC)
Excerpt: as §1

Escherichia coli ATCC 26 = experiment: as above; format: cell-based; conditions: ATCC26, read-out: Minimum Inhibitory Concentration (MIC)
Excerpt: as §1

[7] = tested on: Klebsiella pneumoniae ATCC 10031; experiment: as above; format: cell-based; conditions: ATCC10031, read-out: Minimum Inhibitory Concentration (MIC)
Excerpt: as §1

Sarcoma 180 solid tumor = experiment: Effect on sarcoma 180 solid tumor; format: in vivo, ddY-strain mice; conditions: 7 days after implantation
Method: Six male ddY-strain mice having a weight of about 20 g are used for each group as test animals; and 5×10^6 cells of Sarcoma 180 ascites tumor are implanted subcutaneously in the animals. After 24 hours following implantation, 0.2 ml phosphate buffered saline (PBS) containing DC-38-V in various concentrations is administered intraperitoneally.
Then the suspension is diluted with PBS to obtain suspensions having various concentrations of test compound.
As a control, PBS solution containing Tween 80 is used. The test animals are not affected by the control solution. PBS comprises 0.8 g/dl NaCl, 0.02 g/dl KCl, […] Na2 HPO4, and 0.02 g/dl KH2 PO4 (pH 7.2).
(§2) For comparison, 0.2 ml PBS solution containing mitomycin C is administered to a group of animals intraperitoneally at the same time as the test compound.
Seven days after implantation, the average tumor volume (mm^3) and T/C (T: average tumor volume of the group treated with the test compound, C: that of control) are determined.

[8] = tested on: Lymphocytic leukemia P-388 tumor; experiment: Effect on Lymphocytic leukemia P-388 tumor; format: in vivo, CDF1 mice
Method: Five male CDF1 mice having a weight of about 22 g are used for each group as test animals; and 1×10^6 cells of Lymphocytic leukemia P-388 tumor are implanted intraperitoneally in the test animals. Twenty-four hours following implantation, 0.2 ml PBS solution containing DC-38-V in various concentrations is administered intraperitoneally.
For comparison, 0.2 ml PBS solution containing mitomycin C is administered to a group of test animals intraperitoneally at the same time as the test compound.

Solubility of DC-38-V = format: physicochemical
MH 134 ascites tumor = experiment: Effect on MH 134 ascites tumor; format: in vivo, C3H-strain mice; conditions: for Long term survivors (LTS): ≥40 days
Method: Six male C3H-strain mice having a weight of about 20 g are used for each group as test animals; and 5×10^6 cells of MH 134 ascites tumor are implanted in the animals intraperitoneally. After 24 hours following implantation, 0.2 ml PBS suspension containing DC-38-V in various concentrations is administered intraperitoneally.
as §2

[9] = 25 × 5 mg/kg i.p., once a day for five days
[10] = 50 × 5 mg/kg i.p., once a day for five days
[11] = 100 × 5 mg/kg i.p., once a day for five days

C=Cc1cc(OC)c2c(c1)c(=O)oc1c2cc(OC)c2c(O)ccc(C3OC(C(C)O)C(O)C3O)c21 (stereo not shown) [DC-38-V]
ILS [1, 9]: > 315% | MST [1, 9]: > 49.8 days | LTS [1, 9]: 3/5 | ILS ([1]; 50 × 1 mg/kg i.p.): 114% | MST ([1]; 50 × 1 mg/kg i.p.): 17.4 days | LTS ([1]; 50 × 1 mg/kg i.p.): 0/5 | ILS [1, 10]: > 358% | MST [1, 10]: > 56.6 days | LTS [1, 10]: 4/5 | ILS ([1]; 100 × 1 mg/kg i.p.): > 202% | MST ([1]; 100 × 1 mg/kg i.p.): > 30.6 days | LTS ([1]; 100 × 1 mg/kg i.p.): 1/5 | ILS [1, 11]: > 380% | MST [1, 11]: > 60 days | LTS [1, 11]: 5/5 | ILS ([1]; 200 × 1 mg/kg i.p.): > 264% | MST ([1]; 200 × 1 mg/kg i.p.): > 40.2 days | LTS ([1]; 200 × 1 mg/kg i.p.): 2/5 | ILS ([1]; 400 × 1 mg/kg i.p.): > 275% | MST ([1]; 400 × 1 mg/kg i.p.): > 41.8 days | LTS ([1]; 400 × 1 mg/kg i.p.): 2/5 | LD50 (acute toxicity): > 1000 mg/kg | Stability ([2]; Liquid acidic, shielding): stable | Stability ([2]; Liquid alkaline, shielding): unstable | Stability ([2]; Liquid alkaline, sun light): unstable | Stability ([2]; Liquid neutral, shielding): stable | Stability ([2]; Solid, shielding): stable | Stability ([2]; Solid, sun light): unstable | MIC [3]: 0.0375 µg/mL (≈ 0.0758 µM) | MIC [4]: > 75 µg/mL | MIC [5]: > 75 µg/mL | MIC [6]: 0.0375 µg/mL (≈ 0.0758 µM) | MIC (Escherichia coli ATCC 26): 18.8 µg/mL (≈ 37.9 µM) | MIC [7]: > 75 µg/mL | T/C (average tumor volume) (Sarcoma 180 solid tumor; 100 mg/kg i.p.): 0.76 | average tumor volume (V) (Sarcoma 180 solid tumor; 100 mg/kg i.p.): 1,085 mm^3 | T/C (average tumor volume) (Sarcoma 180 solid tumor; 200 mg/kg i.p.): 0.62 | average tumor volume (V) (Sarcoma 180 solid tumor; 200 mg/kg i.p.): 874 mm^3 | T/C (average tumor volume) (Sarcoma 180 solid tumor; 400 mg/kg i.p.): 0.40 | average tumor volume (V) (Sarcoma 180 solid tumor; 400 mg/kg i.p.): 562 mm^3 | increased life span (ILS) ([8]; 50 mg/kg i.p.): 138% | mean survival time (MST) ([8]; 50 mg/kg i.p.): 13.4 days | increased life span (ILS) ([8]; 100 mg/kg i.p.): 141% | mean survival time (MST) ([8]; 100 mg/kg i.p.): 14.5 days | increased life span (ILS) ([8]; 200 mg/kg i.p.): 155% | mean survival time (MST) ([8]; 200 mg/kg i.p.): 16.0 days | increased life span (ILS) ([8]; 400 mg/kg i.p.): 162% | mean survival time (MST) ([8]; 400 mg/kg i.p.): 16.7 days | Solubility (Solubility of DC-38-V; acetone): slightly soluble | Solubility (Solubility of DC-38-V; benzene): slightly soluble | Solubility (Solubility of DC-38-V; chloroform): slightly soluble | Solubility (Solubility of DC-38-V; dimethylformamide): soluble | Solubility (Solubility of DC-38-V; dimethylsulfoxide): soluble | Solubility (Solubility of DC-38-V; ether): almost insoluble | Solubility (Solubility of DC-38-V; ethyl acetate): slightly soluble | Solubility (Solubility of DC-38-V; methanol): slightly soluble | Solubility (Solubility of DC-38-V; petroleum ether): almost insoluble | Solubility (Solubility of DC-38-V; pyridine): soluble | Solubility (Solubility of DC-38-V; tetrahydrofuran): soluble | Solubility (Solubility of DC-38-V; water): almost insoluble | ILS (MH 134 ascites tumor; 100 mg/kg i.p.): > 184% | MST (MH 134 ascites tumor; 100 mg/kg i.p.): > 31.5 days | Long term survivors (LTS) (MH 134 ascites tumor; 100 mg/kg i.p.): 3/6 | ILS (MH 134 ascites tumor; 200 mg/kg i.p.): > 310% | MST (MH 134 ascites tumor; 200 mg/kg i.p.): > 53.0 days | Long term survivors (LTS) (MH 134 ascites tumor; 200 mg/kg i.p.): 6/6 | ILS (MH 134 ascites tumor; 400 mg/kg i.p.): > 231% | MST (MH 134 ascites tumor; 400 mg/kg i.p.): > 39.5 days | Long term survivors (LTS) (MH 134 ascites tumor; 400 mg/kg i.p.): 2/6

CO[C@@]12[C@H](COC(N)=O)C3=C(C(=O)C(C)=C(N)C3=O)N1C[C@@H]1N[C@@H]12 [Mitomycin C, mitomycin C, reference compound]
ILS ([1]; 2.1 × 1 mg/kg): 122% | MST ([1]; 2.1 × 1 mg/kg): 18.6 days | LTS ([1]; 2.1 × 1 mg/kg): 0/5 | ILS ([1]; 4.2 × 1 mg/kg): > 203% | MST ([1]; 4.2 × 1 mg/kg): > 30.8 days | LTS ([1]; 4.2 × 1 mg/kg): 1/5 | ILS ([1]; 5.6 × 1 mg/kg): 122% | MST ([1]; 5.6 × 1 mg/kg): 18.6 days | LTS ([1]; 5.6 × 1 mg/kg): 0/5 | T/C (average tumor volume) (Sarcoma 180 solid tumor; 4.2 mg/kg i.p.): 0.37 | average tumor volume (V) (Sarcoma 180 solid tumor; 4.2 mg/kg i.p.): 529 mm^3 | increased life span (ILS) ([8]; 4.2 mg/kg i.p.): 160% | mean survival time (MST) ([8]; 4.2 mg/kg i.p.): 16.5 days | ILS (MH 134 ascites tumor; 1.05 mg/kg i.p.): 106% | MST (MH 134 ascites tumor; 1.05 mg/kg i.p.): 18.1 days | Long term survivors (LTS) (MH 134 ascites tumor; 1.05 mg/kg i.p.): 0/6 | ILS (MH 134 ascites tumor; 2.1 mg/kg i.p.): 116% | MST (MH 134 ascites tumor; 2.1 mg/kg i.p.): 19.8 days | Long term survivors (LTS) (MH 134 ascites tumor; 2.1 mg/kg i.p.): 0/6 | ILS (MH 134 ascites tumor; 4.2 mg/kg i.p.): 120% | MST (MH 134 ascites tumor; 4.2 mg/kg i.p.): 20.5 days | Long term survivors (LTS) (MH 134 ascites tumor; 4.2 mg/kg i.p.): 0/6 | ILS (MH 134 ascites tumor; 8.4 mg/kg i.p.): 55% | MST (MH 134 ascites tumor; 8.4 mg/kg i.p.): 9.4 days | Long term survivors (LTS) (MH 134 ascites tumor; 8.4 mg/kg i.p.): 0/6
